Data published in ChEMBL document CHEMBL3632500, “Developing structure-activity relationships from an HTS hit for inhibition of the Cks1-Skp2 protein-protein interaction” (Bioorg Med Chem Lett, 2015).
pIC50: −log10 of the molar value. Active and inactive are the calls of the source. No cut-off for these calls is given here.

How the values were obtained:
[1] = target: T1, Cyclin-dependent kinases regulatory subunit 1/S-phase kinase-associated protein 2 (Homo sapiens, UniProt P61024+Q13309); test: Inhibition of Cks1-Skp2 (unknown origin) interaction assessed as increase in p27-GFP level by western blot analysis; format: protein assay
Target sequence in this assay (P61024 2-79 limits assumed): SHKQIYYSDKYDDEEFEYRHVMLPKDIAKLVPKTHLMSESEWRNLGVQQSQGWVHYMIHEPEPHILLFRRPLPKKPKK
Target sequence in this assay (Q13309 whole entry partner): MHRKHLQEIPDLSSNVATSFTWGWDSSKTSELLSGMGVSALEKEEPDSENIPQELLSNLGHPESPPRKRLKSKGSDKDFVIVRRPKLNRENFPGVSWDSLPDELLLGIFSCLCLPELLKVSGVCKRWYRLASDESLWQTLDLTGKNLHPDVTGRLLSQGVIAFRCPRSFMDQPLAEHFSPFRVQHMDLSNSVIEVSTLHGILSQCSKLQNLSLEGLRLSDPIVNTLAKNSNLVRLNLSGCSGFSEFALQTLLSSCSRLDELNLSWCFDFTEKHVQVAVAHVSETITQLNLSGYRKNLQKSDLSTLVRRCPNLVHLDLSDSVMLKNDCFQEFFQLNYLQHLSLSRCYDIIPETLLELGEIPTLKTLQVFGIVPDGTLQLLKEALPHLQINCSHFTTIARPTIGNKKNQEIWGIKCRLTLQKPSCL

[2] = target: T1, Cyclin-dependent kinases regulatory subunit 1/S-phase kinase-associated protein 2; test: Inhibition of Cks1-Skp2 (unknown origin) interaction assessed as increase in p27-GFP level by ELISA; format: protein assay
Target sequence in this assay (P61024 2-79 limits assumed): as the sequence (P61024 2-79 limits assumed) above
Target sequence in this assay (Q13309 whole entry partner): as the sequence (Q13309 whole entry partner) above

[3] = target: T1, Cyclin-dependent kinases regulatory subunit 1/S-phase kinase-associated protein 2; test: Inhibition of Cks1-Skp2 (unknown origin) interaction after 30 mins by ELISA; format: protein assay; settings: for pIC50: read-out: IC50
A549 [4] = test: Antiproliferative activity against human A549 cells after 6 days; format: functional; settings: A549, 144 h
[5] = Antiproliferative activity against human HT1080 cells after 6 days; format: functional; settings: HT-1080, 144 h
NCI-H1299 = test: Antiproliferative activity against human H1299 cells after 2 days; format: functional, cell-based; settings: for IC50: nci-h1299; for pIC50: Homo sapiens, NCI-H1299, 48 h, read-out: IC50
A549 [6] = test: Antiproliferative activity against human A549 cells after 2 days; format: functional, cell-based; settings: for IC50: a549; for pIC50: Homo sapiens, A549, 48 h, read-out: IC50

In the case of `O=S(=O)(Nc1ccc(-c2ccccc2)c2cccnc12)c1cccnc1`, the Activity [1] was “Active” and the Activity [2] was “Active”.
For `CS(=O)(=O)Nc1ccc(-c2ccccc2)c2cccnc12`, the Activity [1] was “Active” and the Activity [2] was “Active”.
With `O=S(=O)(Nc1ccc(-c2ccccc2)c2cccnc12)c1cccc(C(F)(F)F)c1` the Activity [1] was “Active” and the Activity [2] was “Active”.
In the case of `Cc1ccc(S(=O)(=O)Nc2ccc(N3CCC(Cc4ccccc4)CC3)c3cccnc23)cc1`, the Activity [1] was “inactive”, the IC50 [3] was “Not Active” and the Activity [2] was “inactive”.
In the case of `Cc1ccc(S(=O)(=O)Nc2ccc(Br)c3cccnc23)cc1`, the Activity [1] was “Active” and the Activity [2] was “Active”.
With `Cc1ccc(S(=O)(=O)Nc2ccc(-c3ccco3)c3cccnc23)cc1` the Activity [1] was “Active”, the Activity [2] was “Active” and the GI50 (A549 [4]) was 26 µM. For the same compound, the GI50 [5] was 9.78 µM, the IC50 (NCI-H1299) was “Not Active” and the IC50 (A549 [6]) was “Not Active”.
With `O=S(=O)(Nc1ccc(-c2ccccc2)c2cccnc12)C1CC1` the Activity [1] was “inactive” and the Activity [2] was “inactive”.
For `O=S(=O)(Nc1ccc(-c2ccncc2)c2cccnc12)c1cccnc1`, the Activity [1] was “inactive”, the Activity [2] was “inactive” and the GI50 (A549 [4]) was 5.88 µM. The GI50 [5] was 1.07 µM, the pIC50 (NCI-H1299) was 5.02 and the pIC50 (A549 [6]) was 4.93.
With `O=S(=O)(Nc1ccc(-c2cccnc2)c2cccnc12)C1CC1` the Activity [1] was “inactive” and the Activity [2] was “inactive”.
With `O=S(=O)(Nc1ccc(-c2cccnc2)c2cccnc12)c1cccnc1` the Activity [1] was “Active”, the Activity [2] was “Active” and the GI50 (A549 [4]) was 0.91 µM. For the same compound, the GI50 [5] was 0.4 µM, the pIC50 (NCI-H1299) was 5.98 and the pIC50 (A549 [6]) was 5.83.
With `O=S(=O)(Nc1ccc(-c2ccncc2)c2cccnc12)C1CC1` the Activity [1] was “inactive” and the Activity [2] was “inactive”.
In the case of `Cc1ccc(S(=O)(=O)Nc2cc(Oc3cccc(C#N)c3)cc3cccnc23)cc1`, the GI50 (A549 [4]) was 6.48 µM, the GI50 [5] was 6.83 µM and the IC50 (NCI-H1299) was “Not Active”. For the same compound, the IC50 (A549 [6]) was “Not Active”.
With `Cc1ccc(S(=O)(=O)Nc2ccc(-c3cccnc3)c3cccnc23)cc1` the Activity [1] was “Active”, the Activity [2] was “Active” and the GI50 (A549 [4]) was 6.02 µM. It also gave a GI50 [5] of 4.22 µM, a pIC50 (NCI-H1299) of 5.16 and a pIC50 (A549 [6]) of 5.15.
With `Cc1ccc(S(=O)(=O)Nc2cc(Oc3cc(F)cc(F)c3)cc3cccnc23)cc1` the Activity [1] was “Active”, the Activity [2] was “Active” and the GI50 (A549 [4]) was 4.11 µM. The GI50 [5] was 0.08 µM, the pIC50 (NCI-H1299) was 5.61 and the pIC50 (A549 [6]) was 5.53.
With `Cc1ccc(S(=O)(=O)Nc2ccc(-c3cc4ccccc4s3)c3cccnc23)cc1` the Activity [1] was “Active”, the Activity [2] was “Active” and the GI50 (A549 [4]) was 0.39 µM. For the same compound, the GI50 [5] was 0.15 µM, the IC50 (NCI-H1299) was “Not Active” and the IC50 (A549 [6]) was “Not Active”.
For `Cc1ccc(NS(=O)(=O)c2ccc(-c3ccccc3)c3cccnc23)cc1`, the inhibition [3] was “inactive”.
In the case of `Cc1ccc(C(=O)Nc2ccc(Br)c3cccnc23)cc1`, the inhibition [3] was “inactive”.
For `COc1ccc(S(=O)(=O)Nc2ccc(-c3cccnc3)c3cccnc23)cc1`, the Activity [1] was “Active”, the pIC50 [3] was 6.24 and the Activity [2] was “Active”. For the same compound, the GI50 (A549 [4]) was 1.24 µM, the GI50 [5] was 0.44 µM and the pIC50 (NCI-H1299) was 5.27. It also gave a pIC50 (A549 [6]) of 5.10.
With `COc1ccc(S(=O)(=O)Nc2ccc(-c3ccncc3)c3cccnc23)cc1` the Activity [1] was “Active”, the pIC50 [3] was 5.61 and the Activity [2] was “Active”. The GI50 (A549 [4]) was 5.24 µM, the GI50 [5] was 1.07 µM and the IC50 (NCI-H1299) was “Not Active”. The IC50 (A549 [6]) was “Not Active”.
In the case of `Cc1ccc(S(=O)(=O)Nc2ccc(N3CCN(C)CC3)c3cccnc23)cc1`, the Activity [1] was “inactive”, the IC50 [3] was “Not Active” and the Activity [2] was “inactive”.
In the case of `CS(=O)(=O)Nc1ccc(-c2ccncc2)c2cccnc12`, the Activity [1] was “inactive”, the IC50 [3] was “Not Active” and the Activity [2] was “inactive”.
With `Cc1ccc(S(=O)(=O)Nc2ccc(-c3ccsc3)c3cccnc23)cc1` the Activity [1] was “Active”, the Activity [2] was “Active” and the GI50 (A549 [4]) was 2.36 µM. It also gave a GI50 [5] of 0.64 µM, a pIC50 (NCI-H1299) of 5.39 and a pIC50 (A549 [6]) of 5.33.
For `Cc1ccc(S(=O)(=O)Nc2cccc3cccnc23)cc1`, the Activity [1] was “Active”, the pIC50 [3] was 5.66 and the Activity [2] was “Active”. For the same compound, the GI50 (A549 [4]) was 2.48 µM, the GI50 [5] was 2.46 µM and the pIC50 (NCI-H1299) was 5.27. It also gave a pIC50 (A549 [6]) of 5.12.
With `Cc1ccc(S(=O)(=O)Nc2ccc(-c3ccccc3)c3cccnc23)cc1` the Activity [1] was “Active”, the Activity [2] was “Active” and the GI50 (A549 [4]) was 2.36 µM. For the same compound, the GI50 [5] was 1.64 µM, the pIC50 (NCI-H1299) was 5.07 and the pIC50 (A549 [6]) was 5.14.
With `Cc1ccc(S(=O)(=O)N(C)c2cccc3cccnc23)cc1` the inhibition [3] was “inactive”.
With `O=S(=O)(Nc1ccc(-c2cccnc2)c2cccnc12)c1cccc(C(F)(F)F)c1` the Activity [1] was “Active”, the Activity [2] was “Active” and the pIC50 (NCI-H1299) was 5.41. For the same compound, the pIC50 (A549 [6]) was 5.23.
For `Cc1ccc(S(=O)(=O)Nc2ccc(-c3ccccc3)c3ccncc23)cc1`, the inhibition [3] was “inactive”.
With `CS(=O)(=O)Nc1ccc(-c2cccnc2)c2cccnc12` the Activity [1] was “inactive” and the Activity [2] was “inactive”.
In the case of `COc1ccc(S(=O)(=O)Nc2ccc(-c3ccccc3)c3cccnc23)cc1`, the Activity [1] was “Active” and the Activity [2] was “Active”.
For `Cc1ccc(S(=O)(=O)Nc2ccc(Br)c3ccccc23)cc1`, the inhibition [3] was “inactive”, the GI50 (A549 [4]) was 48.5 µM and the GI50 [5] was 27.4 µM. The IC50 (NCI-H1299) was “Not Active” and the IC50 (A549 [6]) was “Not Active”.
For `COc1ccc(Oc2cc(NS(=O)(=O)c3ccc(C)cc3)c3ncccc3c2)cc1`, the Activity [1] was “inactive”, the Activity [2] was “inactive” and the GI50 (A549 [4]) was 4.09 µM. The GI50 [5] was 0.74 µM, the pIC50 (NCI-H1299) was 4.95 and the pIC50 (A549 [6]) was 4.77.
With `Cc1ccc(S(=O)(=O)Nc2ccc(N3CCOCC3)c3cccnc23)cc1` the Activity [1] was “inactive”, the IC50 [3] was “Not Active” and the Activity [2] was “inactive”.
